Reference: patent US20230295166A1, “ATR INHIBITORS AND USES THEREOF” (ANTENGENE DISCOVERY LIMITED, priority 2020, published 2023)

Test system: LoVo (CCL-229) cells
Test: Tumor cell anti-proliferation assay (CTG assay)
Format: cell-based
Conditions: LoVo human colorectal cancer cells, 96 h, CellTiter-Glo
Method: Assay 2: Tumor Cell Anti-proliferation Assay (CTG Assay)
Human colorectal cancer cells HT-29 (HTB-38) and LoVo (CCL-229) were selected for the CTG assay, the two cell lines were originally obtained from the American Type Culture Collection (ATCC). FBS and appropriate additives were added into base medium to prepare complete medium, then the cell layer was briefly rinsed with 0.25% (w/v) Trypsin-0.038% (w/v) EDTA solution to remove all traces of serum that contains trypsin inhibitor. After that, appropriate volume of Trypsin-EDTA solution was added to flask and cells under an inverted microscope were observed until cell layer was dispersed. At last, appropriate volume of complete growth medium was added and cells were aspirated by gently pipetting. Numbers were collected and counted with Vi-cell XR and cell density was adjusted, cells were seeded into 96-well opaque-walled clear bottom tissue-culture treated plates in the CO2 incubator for 20-24 hours. All the test compounds were at 10 mM in DMSO. Compounds were then added to the cell media in 3-fold serial dilutions, the final DMSO concentration was 0.5%. Plates were incubated for 96 h at 5% CO2, 37° C. Before the measurement, the appropriate volume of CellTiter-Glo Buffer was transferred into the amber bottle containing CellTiter-Glo substrate to reconstitute the lyophilized enzyme/substrate mixture, mixed gently, thereby forming the CellTiter-Glo Reagent (Promega Cat. No. G7573). The plate and its contents were equilibrated to room temperature for approximately 30 minutes, then 100 μL of CellTiter-Glo Reagent was added to the assay plate, the contents were mixed for 2 minutes on an orbital shaker to induce cell lysis, incubated at room temperature for 10 minutes to stabilize luminescent signal. At last the clear bottom was pasted with white back seal and luminescence was recorded with Enspire. IC50 and GI50 values were calculated with XLFit curve fitting software using 4 Parameter Logistic Model Y=Bottom+(Top−Bottom)/(1+(IC50/X)^HillSlope).

Row | SMILES | IC50 [nM]
1 | Cc1cc(-c2cnc3c(-c4ccnn4C)cc(N4CCOC[C@H]4C)nn23)[nH]n1 [Example 23, (R)-3-methyl-4-(8-(1-methyl-1H-pyrazol-5-yl)-3-(3-methyl-1H-pyrazol-5-yl)imidazo[1,2-b]pyridazin-6-yl)morpholine] | 446
2 | C[C@@H]1COCCN1c1cc(-c2ccnn2C)n2ccc(-c3ccn[nH]3)c2n1 [Example 28, (R)-3-methyl-4-(4-(1-methyl-1H-pyrazol-5-yl)-8-(1H-pyrazol-5-yl)pyrrolo[1,2-a]pyrimidin-2-yl)morpholine] | 471
3 | Cc1cc(-c2ncc3c(-c4c(C)nnn4C)cc(N4CCOC[C@H]4C)nn23)[nH]n1 [Example 35, (3R)-4-(4-(1,4-dimethyl-1H-1,2,3-triazol-5-yl)-7-(3-methyl-1H-pyrazol-5-yl)imidazo[1,5-b]pyridazin-2-yl)-3-methylmorpholine] | 129
4 | Cc1nc(-c2ccn[nH]2)n2nc(N3CCOC[C@H]3C)cc(-c3ccnn3C)c12 [Example 36, (R)-3-methyl-4-(5-methyl-4-(1-methyl-1H-pyrazol-5-yl)-7-(1H-pyrazol-5-yl)imidazo[1,5-b]pyridazin-2-yl)morpholine] | 17.8
5 | Cc1cc(-c2nsc3c(-c4ccnn4C)cc(N4CCOC[C@H]4C)nc23)[nH]n1 [Example 37, (R)-3-methyl-4-(7-(1-methyl-1H-pyrazol-5-yl)-3-(3-methyl-1H-pyrazol-5-yl)isothiazolo[4,5-b]pyridin-5-yl)morpholine] | 36.6
6 | Cc1nnn(C)c1-c1cc(N2CCOC[C@H]2C)nc2c(-c3ccn[nH]3)nsc12 [Example 38, (R)-4-(7-(1,4-dimethyl-1H-1,2,3-triazol-5-yl)-3-(1H-pyrazol-5-yl)isothiazolo[4,5-b]pyridin-5-yl)-3-methylmorpholine] | 40.4
7 | C[C@@H]1COCCN1c1cc(C(C)(C)C#N)c2cnc(-c3ccn[nH]3)n2n1 [Example 40, (R)-2-methyl-2-(2-(3-methylmorpholino)-7-(1H-pyrazol-5-yl)imidazo[1,5-b]pyridazin-4-yl)propanenitrile] | 23.8
8 | C[C@@H]1COCCN1c1cc(C(C)(C)S(C)(=O)=O)c2cnc(-c3ccn[nH]3)n2n1 [Example 41, (3R)-4-[4-(2-methanesulfonylpropan-2-yl)-7-(1H-pyrazol-5-yl)imidazo[1,5-b]pyridazin-2-yl]-3-methylmorpholine] | 86.6
9 | Cc1cc(-c2ncc3c(C(C)(C)S(C)(=O)=O)cc(N4CCOC[C@H]4C)nn23)[nH]n1 [Example 42, (R)-3-methyl-4-(7-(3-methyl-1H-pyrazol-5-yl)-4-(2-(methylsulfonyl)propan-2-yl)imidazo[1,5-b]pyridazin-2-yl)morpholine] | 79.3
10 | C[C@@H]1COCCN1c1cc(C2(C#N)CC2)c2cnc(-c3ccn[nH]3)n2n1 [Example 44, (R)-1-(2-(3-methylmorpholino)-7-(1H-pyrazol-5-yl)imidazo[1,5-b]pyridazin-4-yl)cyclopropane-1-carbonitrile] | 43.9
11 | Cc1nnn(C)c1-c1cc(N2CCOC[C@H]2C)nn2c(-c3ccn[nH]3)nc(C)c12 [Example 45, (3R)-4-[4-(dimethyl-1H-1,2,3-triazol-5-yl)-5-methyl-7-(1H-pyrazol-5-yl)imidazo[1,5-b]pyridazin-2-yl]-3-methylmorpholine] | 81.7
12 | Cc1cc(-c2nc(C)c3c(-c4c(C)nnn4C)cc(N4CCOC[C@H]4C)nn23)[nH]n1 [Example 46, (3R)-4-[4-(dimethyl-1H-1,2,3-triazol-5-yl)-5-methyl-7-(3-methyl-1H-pyrazol-5-yl)imidazo[1,5-b]pyridazin-2-yl]-3-methylmorpholine] | 51.2
13 | Cc1cc(-c2nc(C)c3c(-c4ccnn4C)cc(N4CCOC[C@H]4C)nn23)[nH]n1 [Example 47, (R)-3-methyl-4-(5-methyl-4-(1-methyl-1H-pyrazol-5-yl)-7-(3-methyl-1H-pyrazol-5-yl)imidazo[1,5-b]pyridazin-2-yl)morpholine] | 17.1
14 | C[C@@H]1COCCN1c1cc(C2(S(C)(=O)=O)CC2)c2snc(-c3ccn[nH]3)c2n1 [Example 49, (R)-3-methyl-4-(7-(1-(methylsulfonyl)cyclopropyl)-3-(1H-pyrazol-5-yl)isothiazolo[4,5-b]pyridin-5-yl)morpholine] | 16.1
15 | Cc1cc(-c2nsc3c(C(C)(C)C#N)cc(N4CCOC[C@H]4C)nc23)[nH]n1 [Example 54, (R)-2-methyl-2-(3-(3-methyl-1H-pyrazol-5-yl)-5-(3-methylmorpholino)isothiazolo[4,5-b]pyridin-7-yl)propanenitrile] | 66.7
16 | C[C@@H]1COCCN1c1cc(C2(C#N)CCCC2)c2cnc(-c3ccn[nH]3)n2n1 [Example 59, 1-{2-[(3R)-3-methylmorpholin-4-yl]-7-(1H-pyrazol-5-yl)imidazo[1,5-b]pyridazin-4-yl}cyclopentane-1-carbonitrile] | 28.1
17 | C[C@@H]1COCCN1c1cc(-c2ccnn2C)c2c(Cl)nc(-c3ccn[nH]3)n2n1 [Example 61, (3R)-4-[5-chloro-4-(1-methyl-1H-pyrazol-5-yl)-7-(1H-pyrazol-5-yl)imidazo[1,5-b]pyridazin-2-yl]-3-methylmorpholine] | 26.5
18 | Cc1nc(-c2ccn[nH]2)n2nc(N3CC4CCC(C3)O4)cc(-c3ccnn3C)c12 [Example 65, 3-[5-methyl-4-(1-methyl-1H-pyrazol-5-yl)-7-(1H-pyrazol-5-yl)imidazo [1,5-b]pyridazin-2-yl]-8-oxa-3-azabicyclo[3.2.1]octane] | 55.2
19 | Cc1cc(-c2nc(C)c3c(-c4ccnn4C)cc(N4CC5CCC(C4)O5)nn23)[nH]n1 [Example 66, 3-[5-methyl-4-(1-methyl-1H-pyrazol-5-yl)-7-(3-methyl-1H-pyrazol-5-yl)imidazo[1,5-b]pyridazin-2-yl]-8-oxa-3-azabicyclo[3.2.1]octane] | 69
20 | Cc1cc(-c2nsc3c(C(C)(C)O)cc(N4CCOC[C@H]4C)nc23)[nH]n1 [Example 67, (R)-2-(3-(3-methyl-1H-pyrazol-5-yl)-5-(3-methylmorpholino)isothiazolo[4,5-b]pyridin-7-yl)propan-2-ol] | 5
21 | Cc1cc(-c2nsc3c(-c4cnnn4C)cc(N4CCOC[C@H]4C)nc23)[nH]n1 [Example 68, (R)-3-methyl-4-(7-(1-methyl-1H-1,2,3-triazol-5-yl)-3-(3-methyl-1H-pyrazol-5-yl)isothiazolo[4,5-b]pyridin-5-yl)morpholine] | 16
22 | C[C@@H]1COCCN1c1cc(-c2cnnn2C)c2snc(-c3ccn[nH]3)c2n1 [Example 69, (R)-3-methyl-4-(7-(1-methyl-1H-1,2,3-triazol-5-yl)-3-(1H-pyrazol-5-yl)isothiazolo[4,5-b]pyridin-5-yl)morpholine] | 15
23 | Cc1cnn(C)c1-c1cc(N2CCOC[C@H]2C)nc2c(-c3ccn[nH]3)nsc12 [Example 70, (R)-4-(7-(1,4-dimethyl-1H-pyrazol-5-yl)-3-(1H-pyrazol-5-yl)isothiazolo[4,5-b]pyridin-5-yl)-3-methylmorpholine] | 18
24 | Cc1cc(-c2nsc3c(-c4c(C)cnn4C)cc(N4CCOC[C@H]4C)nc23)[nH]n1 [Example 71, (R)-4-(7-(1,4-dimethyl-1H-pyrazol-5-yl)-3-(3-methyl-1H-pyrazol-5-yl)isothiazolo[4,5-b]pyridin-5-yl)-3-methylmorpholine] | 23
25 | Cc1noc(C)c1-c1cc(N2CCOC[C@H]2C)nc2c(-c3ccn[nH]3)nsc12 [Example 72, (R)-4-(7-(3,5-dimethylisoxazol-4-yl)-3-(1H-pyrazol-5-yl)isothiazolo[4,5-b]pyridin-5-yl)-3-methylmorpholine] | 101
26 | Cc1cc(-c2nsc3c(-c4c(C)noc4C)cc(N4CCOC[C@H]4C)nc23)[nH]n1 [Example 73, (R)-4-(7-(3,5-dimethylisoxazol-4-yl)-3-(3-methyl-1H-pyrazol-5-yl)isothiazolo[4,5-b]pyridin-5-yl)-3-methylmorpholine] | 41
27 | C[C@@H]1COCCN1c1cc(C2(S(C)(=O)=O)CC2)nc(Nc2cc(Cl)n[nH]2)n1 [Example 77, (R)—N-(3-chloro-1H-pyrazol-5-yl)-4-(3-methylmorpholino)-6-(1-(methylsulfonyl)cyclopropyl)pyrimidin-2-amine] | 1000
28 | Cn1nccc1-c1cc(N2CC3CCC(C2)O3)nn2c(-c3ccn[nH]3)ncc12 [Example 78, 3-[4-(1-methyl-1H-pyrazol-5-yl)-7-(1H-pyrazol-5-yl)imidazo[1,5-b]pyridazin-2-yl]-8-oxa-3-azabicyclo[3.2.1]octane] | 152
29 | Cc1cc(-c2ncc3c(-c4ccnn4C)cc(N4CC5CCC(C4)O5)nn23)[nH]n1 [Example 79, 3-[4-(1-methyl-1H-pyrazol-5-yl)-7-(3-methyl-1H-pyrazol-5-yl)imidazo[1,5-b]pyridazin-2-yl]-8-oxa-3-azabicyclo[3.2.1]octane] | 246
30 | Cc1cc(-c2nsc3c(N4CCCCS4(=O)=O)cc(N4CCOC[C@H]4C)nc23)[nH]n1 [Example 82, 2-[3-(3-methyl-1H-pyrazol-5-yl)-5-[(3R)-3-methylmorpholin-4-yl]-[1,2]thiazolo[4,5-b]pyridin-7-yl]-1λ^6,2-thiazinane-1,1-dione] | 20
